Experimental data published in patent publication US7018345B2, “Iontophoresis system” (Hisamitsu Pharmaceutical Co., Inc., priority 2002, dated 2006).
Where two headings read alike, the source gives them in different places.

Test: Iontophoretic administration of salmon calcitonin to beagles, blood level by RIA
Format: in vivo, beagle (dog)
Conditions: for level at 0.5 h: beagle, dog, blood, pulse depolarization iontophoresis 0.2 mA for 30 min, measured 30 minutes later, beagles under pentobarbital anesthesia, read-out: blood concentration of salmon calcitonin
Description: Beagles were put under pentobarbital anesthesia. A positive electrode pad containing salmon calcitonin 1000 unit (an extraction pad of an electrode structure applied to the mucous membrane of the mouth) was applied to the mucous membrane of the mouth of each beagle. A negative electrode (a counter pad of an electrode structure applied to the skin) was applied to the ear of the beagle. A pulse depolarization type iontophoresis system was used to apply a 0.2-mA current for 30 minutes. Then, 30 minutes later, the level of salmon calcitonin in the blood was measured. An RIA kit (ROIK6003, Peninsula) was used for quantification.
As in the case with Example 3, salmon calcitonin was administered to beagles under pentobarbital anesthesia. However, the positive electrode pad was not applied to the mucous membrane of the mouth but to the skin (belly). The negative electrode was applied to the ear. The other conditions are similar to those for Example 3.
FIG. 4 is a graph showing the blood concentration observed 30 minutes after the application of the present system to the mucous membrane of the mouth (Example 3) and to the skin (Comparative Example 1). The blood concentration was about 530 pg/ml 30 minutes after salmon calcitonin was administered to the dog via the mucous membrane of the mouth (Example 3). The blood concentration was about 90 pg/ml 30 minutes after salmon calcitonin was administered to the dog via the skin (Comparative Example 1). Calcitonin is ionized, but owing to its […], calcitonin permeates through the living body as a result of the flow of water caused by iontophoresis instead of its direct electric driving force.

level at 0.5 h (topical or ocular, Comparative Example 1: positive electrode pad (1000 unit) on skin (belly)): ~0.09 ng/mL | level at 0.5 h (Example 3: positive electrode pad (1000 unit) on mucous membrane of the mouth): ~0.53 ng/mL | absorptivity of mucous membrane relative to skin (iontophoresis, mucous membrane vs skin): six
SMILES: CC(C)C[C@H](NC(=O)[C@H](CCCCN)NC(=O)CNC(=O)[C@H](CC(C)C)NC(=O)[C@@H](NC(=O)[C@@H]1CSSC[C@H](N)C(=O)N[C@@H](CO)C(=O)N[C@@H](CC(N)=O)C(=O)N[C@@H](CC(C)C)C(=O)N[C@@H](CO)C(=O)N[C@@H]([C@@H](C)O)C(=O)N1)C(C)C)C(=O)N[C@@H](CO)C(=O)N[C@@H](CCC(N)=O)C(=O)N[C@@H](CCC(=O)O)C(=O)N[C@@H](CC(C)C)C(=O)N[C@@H](Cc1c[nH]cn1)C(=O)N[C@@H](CCCCN)C(=O)N[C@@H](CC(C)C)C(=O)N[C@@H](CCC(N)=O)C(=O)N[C@H](C(=O)N[C@@H](Cc1ccc(O)cc1)C(=O)N1CCC[C@H]1C(=O)N[C@@H](CCCNC(=N)N)C(=O)N[C@H](C(=O)N[C@@H](CC(N)=O)C(=O)N[C@H](C(=O)NCC(=O)N[C@@H](CO)C(=O)NCC(=O)N[C@H](C(=O)N1CCC[C@H]1C(N)=O)[C@@H](C)O)[C@@H](C)O)[C@@H](C)O)[C@@H](C)O [salmon calcitonin]
